Where two headings read alike, the source gives them in different places.
Legend:
[1] = Pharmacokinetic profile in male SD rats (Experiment 8); format: in vivo, rat
Method: Example A was dissolved in 5% DMA+10% Solutol+85%(10% HPBCD in saline) to afford a clear dosing solution of 1 mg/mL. The dosing solution was administered to three rats at 2 mg/kg i.v. via the foot dorsal vein and to three further rats at 10 mg/kg p.o. via oral gavage. Blood samples (ca. 150 μL) were collected at 2, 5, 20 min, 1, 2, 4, 8, 12 and 24 h after i.v. dosing and at 5, 15, 30 min, 1, 2, 4, 8, 12 and 24 h after oral dosing. The blood samples were centrifuged at 4° C. (2000 g, 5 min) within 15 min of sample collection to obtain plasma samples. Plasma samples were stored at −80° C. until analysis. The samples were analysed by UPLC-MS/MS (API 4000).

[2] = target: T1, full-length human PDE4D5 (Homo sapiens, UniProt Q08499); test: PDE4 radio-assay, PDE4D5 long form activation (Experiment 1); format: biochemical; conditions: n ≥ 2, read-out: PDE4D5 activity (mean % increase in counts over basal activity without added compound)
T1 construct: stably expressed the full-length human PDE4D5, PDE4A4 and PDE4B1 long isoforms; made in house; cytosol fraction of the lysate
Method: One suitable method of detecting whether or not a compound is capable of serving as an activator of a PDE4 long form is using a two-step radio-assay procedure described in Experiment 1. In summary, the method involves incubating a PDE4 long form with a test small molecule activator, together with [^3H]-labelled cAMP to assess alterations in the breakdown of cAMP to the 5′-adenosine monophosphate (5′-AMP) product. A sample of the reaction mixture from such an incubation is subsequently treated with snake venom 5′-nucleotidase to allow conversion of the nucleotide [^3H]-labelled 5′-AMP to the uncharged nucleoside [^3H]-labelled adenosine, which can be separated and quantified to assess PDE4 activity and the effect of the test compound (Thompson, W. J. and Appleman, M. M. Biochemistry 10: 311-316, 1971, with some modifications as described in: Marchmont, R. J. and Houslay, M. D. Biochem J. 187: 381-92, 1980).
HEK 293 cells were transfected with pDEST™ PDE4 expression vectors using Lipofectamine LTX/Plus reagent (Invitrogen) as outlined by the manufacturer and clonal isolates expanded to obtain cell lines that stably expressed the full-length human PDE4D5, PDE4A4 and PDE4B1 long isoforms and the full length human PDE4B2 short isoform. These were called the HEK-PDE4D5, HEK-PDE4A4, HEK-PDE4B1 and HEK-PDE4B2 cell lines, respectively.
HEK-PDE4D5 cells were seeded out in 100 mm plates and incubated at 37° C. in an atmosphere of 5% CO2, 95% air. Cell lysates were prepared using KHEM buffer [50 mM KCl, 10 mM EGTA, 50 mM HEPES (pH 7.2), 1.92 mM MgCl2].
To prepare the cell lysates, the 100 mm plates containing the cells were placed on ice and washed with ice-cold PBS (phosphate buffered saline, pH 7.4). KHEM buffer (500 μl) was added to the cells. Cells were then scraped off the plate and triturated using a needle (BD Microlance™ 0.8, 40 mm). The lysed cells were then centrifuged at 2000 rpm for 10 minutes to remove cell debris and the supernatant (cell lysate containing recombinant PDE4D5) was transferred to a fresh tube and kept on ice.
The cell lysate containing recombinant PDE4D5 was transferred into a centrifuge tube and placed into an ultracentrifuge (BECKMAN COULTER) and spun at high speed (100,000 g) for 30 minutes at 4° C. The cytosol fraction was then collected and its protein amount determined using a BCA protein assay.
PDE assays were performed using a final concentration of 10 mM Tris/5 mM MgCl2 and 1 μM [3H]-cAMP (Perkin Elmer) plus PDE4D5 cell lysate cytosol fraction, containing over-expressed PDE4D5, with and without test compound. Incubations were performed at 30° C. for 5 minutes. The samples were then placed in a boiling water bath for 2 minutes to denature the PDE enzyme, and returned to ice. Samples were allowed to cool for 1.0 min after which snake venom 5′-nucleotidase (25 μl, 1 mg/ml; Sigma) was added. The tubes were vortexed and incubated in a water bath at 30° C. for 10 minutes, to attain conversion of [3H]-5′-AMP to [3H]-adenosine, and then placed on ice. Dowex ion exchange resin (Sigma) prepared as a 1:1 Dowex:water stock was thoroughly re-suspended and diluted 2:1 with ethanol. The resulting Dowex suspension (0.4 ml) was added to each tube. Tubes were vortexed to mix and then incubated on ice for at least 15 minutes before a final vortex. The Dowex resin was pelleted by centrifugation at 13,000 g at 4° C. for 3 minutes and 150 μl of the supernatant was removed to an Eppendorf tube containing 1 ml of ScintiSafe3 scintillation fluid (Fisher). Tubes were vortexed thoroughly to mix and the recovered [3H]-adenosine was quantified by measuring counts over 1 minute in a scintillation counter.

[3] = tested on: OX161 cells; test: Reversal of in vitro cyst formation in OX161 cells (Experiment 10); format: cell-based, human; conditions: compound added every 2 days from day 10 to day 20, with forskolin; FIG. 13 Panel B
Method: In this study, the potential of PDE4 long form activators to reverse the formation of pre-formed cysts was evaluated in a human ADPKD patient-derived OX161 cell line. The experiment was carried out according to the method of Experiment 9. For the first 10 days, forskolin was added at every feed (every 2 days) but no test compound was added. For the. next 10 days, the test compound and forskolin were added at every feed (every 2 days).
Phase-contrast images were obtained every 2 days for 20 days. Per condition, 10 images were taken (in duplicate) and the average cyst area calculated.

T1 sequence (Q08499 1-745 isoform Q08499-6): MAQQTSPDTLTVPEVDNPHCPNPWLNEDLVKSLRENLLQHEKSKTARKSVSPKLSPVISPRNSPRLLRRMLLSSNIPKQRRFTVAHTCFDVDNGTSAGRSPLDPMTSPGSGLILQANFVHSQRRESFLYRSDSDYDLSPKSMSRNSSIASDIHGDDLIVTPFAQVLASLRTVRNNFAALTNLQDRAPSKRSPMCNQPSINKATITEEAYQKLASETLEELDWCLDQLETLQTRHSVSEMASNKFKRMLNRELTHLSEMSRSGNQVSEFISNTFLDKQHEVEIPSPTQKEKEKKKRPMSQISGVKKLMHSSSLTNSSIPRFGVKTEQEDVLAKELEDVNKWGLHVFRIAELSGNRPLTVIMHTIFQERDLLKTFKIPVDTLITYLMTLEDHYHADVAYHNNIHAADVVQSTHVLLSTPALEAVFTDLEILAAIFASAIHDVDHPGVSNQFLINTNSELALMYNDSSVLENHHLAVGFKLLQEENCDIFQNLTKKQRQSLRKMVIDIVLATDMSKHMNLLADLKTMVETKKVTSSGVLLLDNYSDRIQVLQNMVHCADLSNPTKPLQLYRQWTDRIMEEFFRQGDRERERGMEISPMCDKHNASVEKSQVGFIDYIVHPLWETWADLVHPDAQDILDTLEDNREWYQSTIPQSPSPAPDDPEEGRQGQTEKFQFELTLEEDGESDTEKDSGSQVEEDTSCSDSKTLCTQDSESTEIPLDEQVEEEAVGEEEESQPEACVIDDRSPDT

- abnormal effects observed in the rats ([1]; 2 mg/kg i.v. or 10 mg/kg p.o.): No abnormal effects were observed
- half-life ([1]; rat, iv, 2 mg/kg i.v., plasma, read-out: terminal half life after i.v. dosing (converted)): 2.2 h
- bioavailability ([1]; rat, oral, 10 mg/kg p.o. vs 2 mg/kg i.v., plasma): 100%
- half-life ([1]; rat, po, 10 mg/kg p.o., plasma, read-out: terminal half life after oral dosing (converted)): 9.1 h
- activation at 1 µM ([2]; 1 μM compound): -3.6%
- activation at 3 µM ([2]; 3 μM compound): -0.2%
- activation at 10 µM ([2]; 10 μM compound): 12.5%
- activation at 30 µM ([2]; 30 μM compound): 39.7%
- activation at 50 µM ([2]; 50 μM compound): 91.9%
SMILES: CCc1nc(-c2ccc(Cl)c(F)c2)nn1CC(=O)NCc1cccc(F)c1 [Example A, N-(3-Fluorobenzyl)-2-[3-(4-chloro-3-fluorophenyl)-5-ethyl-1H-1,2,4-triazol-1-yl]acetamide]
- in vitro cyst formation in OX161 cells, reversal (in words) [3]: reversed in vitro cyst formation
